Here are results for 2 molecules from patent US7271174B2, “Metabolites of tricyclic amides useful for inhibition of G-protein function and methods of treatment of proliferative diseases” (Schering Corporation, priority 2003, dated 2007).

This experiment addresses purified human farnesyl protein transferase (Homo sapiens, UniProt P49354+P49356). The experiment can be described thus: (H-Ras) Farnesyl Transferase Inhibition assay. Conditions: transfer of [3H] farnesyl from [3H] farnesyl pyrophosphate to biotin-CVLS peptide; 37° C., 60 minutes; SPA beads. Type of experiment: biochemical. The procedure:
Assay Conditions for (H-Ras) FPT
FPT activity was determined by measuring the transfer of [^3H] farnesyl from [^3H] farnesyl pyrophosphate to a biotinylated peptide derived from the C-terminus of H-Ras (biotin-CVLS). […] The reaction mixture was incubated in a Vortemp shaking incubator at 37° C., 45 RPM for 60 minutes and stopped with 150 μL of 0.25 M EDTA containing 0.5% BSA and 1.3 mg/ml Streptavidin SPA beads. […] Percent inhibition was calculated relative to the vehicle control.

What is called IC50 is the concentration needed to halve the response being measured. Read a low IC50 as inhibition by little substance. As for `NC(=O)N1CCC(=CC(=O)N2CCC([C@H]3c4ncc(Br)cc4CCc4cc(Cl)cc(Br)c43)CC2)CC1` [Compound 9, (+)-4-[2-[4-(3,10-Dibromo-8-chloro-6,11-dihydro-5H-benzo[5,6]cyclohepta[1,2-b]pyridin-11(R)-yl)-1-piperidinyl]-2-oxoethylidene]-1-piperidinecarboxamide], inhibition was half-maximal at 23.3 nM (IC50).

On to `NC(=O)N1CC=C(CC(=O)N2CCC([C@H]3c4ncc(Br)cc4CCc4cc(Cl)cc(Br)c43)CC2)CC1` [Compound 8, (+)-4-[2-[4-(3,10-dibromo-8-chloro-6,11-dihydro-5H-benzo[5,6]cyclohepta[1,2-b]pyridin-11(R)-yl)-1-piperidinyl]-2-oxoethyl]-3,4-didehydro-1-piperidine-carboxamide], for which the IC50 was 2.6 nM.
